Columns and labels:
full-length human RORγt = full-length human RORγt (Homo sapiens (Human), UniProt P51449); experiment: RORγt (full-length human) reporter assay, Conditions B or C; type: cell-based; details: Conditions B or C; for RORγt (FL) Reporter Assay B or C, % inhibition (value marked *): marked *: footnote not given; for IC50: read-out: RORγt (FL) Reporter Assay B or C, IC50; for RORγt (FL) Reporter Assay B or C, % inhibition (value marked ***): marked ***: footnote not given
Excerpt: RORγt (Full-Length Human) Reporter Assay:
Cells used in this assay were transiently co-transfected with three different plasmids, one expressing the GAL4-DNA binding domain (DBD)-RORγt fusion protein under control of a CMV promoter (NH2-Gal4-DBD:RORC-COOH in pCMV-BD, Stratagene #211342), and two reporter plasmids—the firefly luciferase reporter under control of a GAL4 promoter (pFR-Luc 2×GAL4) and Renilla luciferase reporter under control of CMV promoter (pRL-CMV, Promega # E2261). The full-length coding sequence was used for human RORγt, i.e., nucleotides 142-1635 of human RORγt, transcript variant 2, NCBI Accession: NM_001001523.1 (SEQ ID NO:1). HEK293T cells were plated at 35,000 per well in 96-well plate in medium of DMEM with 10% FBS. After 18-22 hours incubation, the transfection was carried out by using a PEI solution with 170.5 ng total DNA/well (50 ng pCMV-BD-ROR plus 20 ng of pFR-Luc reporter and 0.5 ng of pRL-CMV reporter plus 100 ng Carrier DNA (Clontech #630440) for each well). 4-6 hours after transfection, cells were treated with compounds for overnight in the medium with final concentration of FBS 1.3% and DMSO 0.1%. After overnight (16 to 20 hours) incubation, media were removed and cells were lysed with 50 μL Glo Lysis Buffer (Promega) for 10-15 minutes followed by 10 minute incubation with 50 μL Dual Glo reagent (Promega) at room temperature. Firefly luciferase luminescence was measured using a BMG Pherastar plate reader. To each well, 50 μL Stop and Glo reagent was added and incubated for 10 minutes at room temperature. Renilla luminescence was measured using a BMG Pherastar plate reader. To calculate the effect of compounds on RORγt activity, firefly values were normalized against values of DMSO only and values of reference compound at saturating concentration, then further normalized against Renilla signals. IC50s were generated by plotting final Renilla normalized data against compound concentration and percent inhibition was calculated against DMSO control.
Cells used in this assay were transiently co-transfected with three different plasmids, one expressing the GAL4-DNA binding domain (DBD)-RORγt fusion protein under control of a CMV promoter (NH2-Gal4-DBD:RORC-COOH in pCMV-BD, Stratagene #211342), and two reporter plasmids—the firefly luciferase reporter under control of a GAL4 promoter (pFR-Luc 2×GAL4) and Renilla luciferase reporter under control of CMV promoter (pRL-CMV, Promega # E2261). The full-length coding sequence was used for human RORγt, i.e., nucleotides 142-1635 of human RORγt, transcript variant 2, NCBI Accession: NM_001001523.1 (SEQ ID NO:1). HEK293T cells were plated at 8750 cells per well in 384-well plate in medium of DMEM with 10% FBS. After 18-22 hours incubation, the transfection was carried out by using a PEI solution with 42.6 ng total DNA/well (12.5 ng pCMV-BD-ROR plus 5 ng of pFR-Luc reporter and 0.125 ng of pRL-CMV reporter plus 25 ng Carrier DNA (Clontech #630440) for each well). 4-6 hours after transfection, cells were treated with compounds for overnight in the medium with final concentration of FBS 1.3% and DMSO 0.1%. After overnight (16 to 20 hours) incubation, media were removed and cells were lysed with 20 μL Glo Lysis Buffer (Promega) for 10-15 minutes followed by 10 minute incubation with 20 μL Dual Glo reagent (Promega) at room temperature. Firefly luciferase luminescence was measured using a BMG Pherastar plate reader. To each well, 20 μL Stop and Glo reagent was added and incubated for 10 minutes at room temperature. Renilla luminescence was measured using a BMG Pherastar plate reader. To calculate the effect of compounds on RORγt activity, firefly values were normalized against values of DMSO only and values of reference compound at saturating concentration, then further normalized against Renilla signals.

[1] = target: human RORγt ligand binding domain (RORγt LBD) (Homo sapiens (Human), UniProt P51449); experiment: RORγt ThermoFluor® assay (thermal shift binding); details: read-out: ThermoFluor® Assay, Kd
Excerpt: ThermoFluor® is a fluorescence based assay that estimates ligand binding affinities by measuring the effect of a ligand on protein thermal stability (Pantoliano, M. W., Petrella, E. C., Kwasnoski, J. D., Lobanov, V. S., Myslik, J., Graf, E., Carver, T., Asel, E., Springer, B. A., Lane, P., and Salemme, F. R. (2001) High-density miniaturized thermal shift assays as a general strategy for drug discovery. J Biomol Screen 6, 429-40, and Matulis, D., Kranz, J. K., Salemme, F. R., and Todd, M. J. (2005) Thermodynamic stability of carbonic anhydrase: measurements of binding affinity and stoichiometry using ThermoFluor. Biochemistry 44, 5258-66). This approach is applicable to a wide variety of systems, and rigorous in theoretical interpretation through quantitation of equilibrium binding constants (KD).
The shift in the melting point described as a ΔTm is proportional to the concentration and affinity of the ligand. The compound potency may be compared as a rank order of either ΔTm values at a single compound concentration or in terms of KD values, estimated from concentration response curves.
RORγt ThermoFluor® Assay Construct
For the RORγt construct used in the ThermoFluor® assay, numbering for the nucleotide sequences was based on the reference sequence for human RORγt, transcript variant 2, NCBI Accession: NM_001001523.1 (SEQ ID NO:1). Nucleotides 850-1635 (SEQ ID NO:2) coding for the wild type human RORγt ligand binding domain (RORγt LBD) were cloned into the pHIS1 vector, a modified pET E. coli expression vector (Accelagen, San Diego), containing an in-frame N-terminal His-tag and a TurboTEV protease cleavage site (ENLYFQG, SEQ ID NO:3) upstream of the cloned insert sequence. The amino acid sequence for the RORγt construct used in the Thermofluor® assay is shown as SEQ ID NO:4.
ThermoFluor® experiments were carried out using instruments owned by Janssen Research and Discovery, L.L.C. through its acquisition of 3-Dimensional Pharmaceuticals, Inc. 1,8-ANS (Invitrogen) was used as a fluorescent dye. Protein and compound solutions are dispensed into black 384-well polypropylene PCR microplates (Abgene) and overlayed with silicone oil (1 μL, Fluka, type DC 200) to prevent evaporation.
Bar-coded assay plates are robotically loaded onto a thermostatically controlled PCR-type thermal block and then heated at a typical ramp-rate of 1° C./min for all experiments. Fluorescence was measured by continuous illumination with UV light (Hamamatsu LC6) supplied via fiber optic and filtered through a band-pass filter (380-400 nm; >6 OD cutoff). Fluorescence emission of the entire 384-well plate was detected by measuring light intensity using a CCD camera (Sensys, Roper Scientific) filtered to detect 500±25 nm, resulting in simultaneous and independent readings of all 384 wells. Images were collected at each temperature, and the sum of the pixel intensity in a given area of the assay plate was recorded versus temperature. Reference wells contained RORγt without compounds, and the assay conditions were as follows: • 0.065 mg/mL RORγt • 60 μM 1,8-ANS • 100 mM Hepes, pH 7.0 • 10 mM NaCl • 2.5 mM GSH • 0.002% Tween-20
Project compounds were arranged in a pre-dosed mother plate (Greiner Bio-one) wherein compounds are serially diluted in 100% DMSO by 1:2 from a high concentration of 10 mM over 12 columns within a series (column 12 is a reference well containing DMSO, no compound). The compounds were robotically dispensed directly into assay plates (×=46 nL) using a Hummingbird capillary liquid handling instrument (Digilab). Following compound dispense, protein and dye in buffer was added to achieve the final assay volume of 3 μL, followed by 1 μL of silicone oil.

Sequence of full-length human RORγt (P51449 other isoform, or with tags, fused parts or gaps): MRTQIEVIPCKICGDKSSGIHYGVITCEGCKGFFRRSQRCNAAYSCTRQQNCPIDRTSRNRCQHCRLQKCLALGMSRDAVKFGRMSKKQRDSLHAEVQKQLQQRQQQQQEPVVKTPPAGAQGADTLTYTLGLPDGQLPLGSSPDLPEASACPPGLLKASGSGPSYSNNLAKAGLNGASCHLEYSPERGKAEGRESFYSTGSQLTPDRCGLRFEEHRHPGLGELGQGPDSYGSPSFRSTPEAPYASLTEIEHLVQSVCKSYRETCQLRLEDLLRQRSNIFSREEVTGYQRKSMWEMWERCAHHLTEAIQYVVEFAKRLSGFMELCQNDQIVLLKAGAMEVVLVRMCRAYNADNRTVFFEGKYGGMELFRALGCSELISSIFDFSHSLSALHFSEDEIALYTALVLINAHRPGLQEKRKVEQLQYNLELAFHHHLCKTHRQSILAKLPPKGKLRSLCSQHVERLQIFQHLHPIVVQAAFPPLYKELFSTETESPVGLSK
Sequence of human RORγt ligand binding domain (RORγt LBD) (P51449 other isoform, or with tags, fused parts or gaps): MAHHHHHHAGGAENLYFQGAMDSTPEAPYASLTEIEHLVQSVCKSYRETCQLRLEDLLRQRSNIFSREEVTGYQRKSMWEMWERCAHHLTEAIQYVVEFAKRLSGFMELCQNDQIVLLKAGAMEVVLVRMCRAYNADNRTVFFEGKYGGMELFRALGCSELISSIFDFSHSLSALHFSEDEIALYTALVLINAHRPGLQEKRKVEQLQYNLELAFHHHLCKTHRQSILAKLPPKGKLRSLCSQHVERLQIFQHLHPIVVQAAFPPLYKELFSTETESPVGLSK

| RORγt (FL) Reporter Assay B or C, % inhibition (value marked *) (full-length human RORγt) | IC50 (full-length human RORγt) [nM] | Kd [1] [nM] | RORγt (FL) Reporter Assay B or C, % inhibition (value marked ***) (full-length human RORγt) | Structure (SMILES) |
| --- | --- | --- | --- | --- |
| 94* % | 27 | 4.7 |  | CC[C@H](Nc1cc(C(F)F)c(-c2sc(C(=O)NCC(C)(C)O)nc2C(=O)N2CCC[C@@H]2C)cn1)C1CC1 (relative stereo) [Example 166] |
| 100* % | 120 | 3.7 |  | CC[C@@H](Nc1cc(C(F)F)c(-c2sc(C(=O)NCC(C)(C)O)nc2C(=O)N2CCC[C@@H]2C)cn1)C1CC1 (relative stereo) [Example 167, 5-(6-(((R*)-1-Cyclopropyl)amino)-4-(difluoromethyl)pyridine-3-yl)-N-(2-hydroxy-2-methylpropyl)-4-((S)-2-methylpyrrolidine-1-carbonyl)thiazole-2-carboxamide] |
|  | 44 | 5.8 | 119*** % | C[C@H](Nc1cc(C(F)(F)F)c(-c2sc(C(=O)NCC(C)(C)O)nc2C(=O)N2CCC[C@@H]2C)cn1)C1CCC1 (relative stereo) [Example 175, 5-(6-(((S*)-1-Cyclobutylethyl)amino)-4-(trifluoromethyl)pyridine-3-yl)-N-(2-hydroxy-2-methylpropyl)-4-(((S)-2-methylpyrrolidine-1-carbonyl)thiazole-2-carboxamide] |
|  | 15 | 1.3 | 115*** % | C[C@@H](Nc1cc(C(F)(F)F)c(-c2sc(C(=O)NCC(C)(C)O)nc2C(=O)N2CCC[C@@H]2C)cn1)C1CCC1 (relative stereo) [Example 176, 5-(6-(((R*)-1-Cyclobutylethyl)amino)-4-(trifluoromethyl)pyridine-3-yl)-N-(2-hydroxy-2-methylpropyl)-4-((S)-2-methylpyrrolidine-1-carbonyl)thiazole-2-carboxamide] |
| 76* % | 34 | 0.22 |  | C[C@H]1CC(F)(F)CN1C(=O)c1nc(C(=O)N[C@@H]2COC[C@@H]2O)sc1-c1cnc(NC2(C)CCC2)cc1C(F)(F)F (relative stereo) [Example 183, 4-((S)-4,4-Difluoro-2-methylpyrrolidine-1-carbonyl)-N-((3R*,4R*)-4-hydroxytetrahydrofuran-3-yl)-5-(6-((1-methylcyclobutyl)amino)-4-(trifluoromethyl)pyridine-3-yl)thiazole-2-carboxamide] |
| 92* % | 49 | 0.7 |  | C[C@H]1CC(F)(F)CN1C(=O)c1nc(C(=O)N[C@H]2COC[C@H]2O)sc1-c1cnc(NC2(C)CCC2)cc1C(F)(F)F (relative stereo) [Example 184, 4-((S)-4,4-Difluoro-2-methylpyrrolidine-1-carbonyl)-N-((3S*,4S*)-4-hydroxytetrahydrofuran-3-yl)-5-(6-((1-methylcyclobutyl)amino)-4-(trifluoromethyl)pyridine-3-yl)thiazole-2-carboxamide] |
| 104* % | 14 | 8.2 |  | CC[C@H](Nc1cc(C(F)F)c(-c2sc(C(=O)N[C@@H]3C[C@@H]3O)nc2C(=O)N2CCC[C@@H]2C)cn1)C(F)(F)F (relative stereo) [Example 211, 5-(4-(Difluoromethyl)-6-(((S)-1,1,1-trifluorobutan-2-yl)amino)pyridin-3-yl)-N-((1R*,2S*)-2-hydroxycyclopropyl)-4-((S)-2-methylpyrrolidine-1-carbonyl)thiazole-2-carboxamide] |
| 104* % | 300 | 13 |  | CC[C@H](Nc1cc(C(F)F)c(-c2sc(C(=O)N[C@H]3C[C@H]3O)nc2C(=O)N2CCC[C@@H]2C)cn1)C(F)(F)F (relative stereo) [Example 212, 5-(4-(Difluoromethyl)-6-(((S)-1,1,1-trifluorobutan-2-yl)amino)pyridin-3-yl)-N-((1S*,2R*)-2-hydroxycyclopropyl)-4-((S)-2-methylpyrrolidine-1-carbonyl)thiazole-2-carboxamide] |
| 103* % | 19 | 6.1 |  | CC[C@H](Nc1cc(C(F)F)c(-c2sc(C(=O)N[C@@H]3C[C@H]3O)nc2C(=O)N2CCC[C@@H]2C)cn1)C(F)(F)F (relative stereo) [Example 213, 5-(4-(Difluoromethyl)-6-(((S)-1,1,1-trifluorobutan-2-yl)amino)pyridin-3-yl)-N-((1R*,2R*)-2-hydroxycyclopropyl)-4-((S)-2-methylpyrrolidine-1-carbonyl)thiazole-2-carboxamide] |

From patent US10975068B2, “6-aminopyridin-3-yl thiazoles as modulators of RORγT” (Janssen Pharmaceutica NV, priority 2016, dated 2021)
